Reference: patent US5192672A, “Method for oxidizing hydrocarbons with a hydroxylase from a methane monooxygenase” (Amoco Corporation, priority 1991, dated 1993)
In brackets after ≈: the same amount, converted by molar mass. Blank lines part the entries; values can stand above or below the molecule they belong to.

Key:
[1] = target: T1, hydroxylase of methane monooxygenase (Methylosinus trichosporium, UniProt P27353); test: Multiple turnover oxidation of hydrocarbon substrates using hydrogen peroxide; type: biochemical, Methylosinus trichosporium OB3b; settings: H2O2 coupled
T1 construct: The novel high activity hydroxylase of the present invention was obtained from Methylosinus trichosporium OB3b; endogenous in cells; host or cells: Methylosinus trichosporium OB3b; hydroxylase purified from the bacteria
T1 sequence (P27353 1-526): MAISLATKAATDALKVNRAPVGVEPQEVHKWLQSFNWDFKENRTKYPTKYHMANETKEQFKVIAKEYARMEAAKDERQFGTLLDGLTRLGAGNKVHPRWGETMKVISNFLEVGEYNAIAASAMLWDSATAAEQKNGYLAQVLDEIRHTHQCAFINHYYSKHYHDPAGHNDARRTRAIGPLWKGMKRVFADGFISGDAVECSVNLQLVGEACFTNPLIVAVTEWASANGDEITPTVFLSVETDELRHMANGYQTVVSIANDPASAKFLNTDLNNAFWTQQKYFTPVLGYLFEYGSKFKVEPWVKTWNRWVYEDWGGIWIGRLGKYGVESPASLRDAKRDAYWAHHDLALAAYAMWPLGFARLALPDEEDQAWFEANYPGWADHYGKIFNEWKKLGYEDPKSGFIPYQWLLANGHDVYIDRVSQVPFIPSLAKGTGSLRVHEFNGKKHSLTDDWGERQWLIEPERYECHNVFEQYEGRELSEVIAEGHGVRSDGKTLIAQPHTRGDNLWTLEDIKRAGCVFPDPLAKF
T1 sequence (P27354 1-394 partner): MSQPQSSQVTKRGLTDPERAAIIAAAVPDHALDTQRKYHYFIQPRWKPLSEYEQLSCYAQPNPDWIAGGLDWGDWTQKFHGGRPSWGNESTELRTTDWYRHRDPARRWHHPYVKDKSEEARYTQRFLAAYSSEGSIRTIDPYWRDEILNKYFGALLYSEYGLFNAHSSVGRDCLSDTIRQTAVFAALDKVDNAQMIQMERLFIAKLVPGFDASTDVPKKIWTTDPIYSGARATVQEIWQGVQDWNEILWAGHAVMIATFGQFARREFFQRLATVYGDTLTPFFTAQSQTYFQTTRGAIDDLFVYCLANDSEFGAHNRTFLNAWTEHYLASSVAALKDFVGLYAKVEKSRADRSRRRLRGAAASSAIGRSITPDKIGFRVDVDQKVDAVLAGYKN
T1 sequence (P27355 1-169 partner): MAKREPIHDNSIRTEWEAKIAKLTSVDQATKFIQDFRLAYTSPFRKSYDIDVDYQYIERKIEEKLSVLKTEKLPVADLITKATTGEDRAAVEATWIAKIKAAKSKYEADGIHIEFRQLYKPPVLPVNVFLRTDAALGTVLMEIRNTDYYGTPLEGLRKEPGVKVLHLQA
Protocol: . Substrates were injected into the respective reaction vials as follows: gaseous substrates (3 ml) were injected into the headspace of the reaction vial; liquid substrates (50 μls) were injected directly into the protein solution. The protein solution and substrate were allowed to equilibrate for five minutes in a water bath shaker at 30° C. Each reaction was initiated by injection of H2 O2 (20 μl of 1.0 MH2 O2 in water) to a concentration of about 100 mM H2 O2. After an appropriate period (2 minutes) a portion of the reaction mixture was removed, the reaction terminated, and the sample prepared for analysis.
Samples were analyzed for products as follows: The benzene, substituted benzenes and pyridine samples were analyzed by High Pressure Liquid Chromatography (HPLC). The reaction in each sample was quenched by addition of 2 volumes of ethanol or 3% trichloroacetic acid which caused precipitation of the hydroxylase. The samples were centrifuged for two minutes (10,800×g) and the precipitated hydroxylase removed. A portion of each supernatant was injected into a Beckman HPLC equipped with a reverse-phase column (C18 matrix) and UV detection capability.
All other samples were analyzed by gas chromatography. Except for the methane sample, all analyses were performed as follows: The reaction in each sample was quenched by addition of an equal volume chloroform (CHCl3) followed by vortexing for a brief period. The sample was centrifuged for two minutes (10,800×g) to separate the CHCl3 layer from the sample solution. A portion of the CHCl3 layer was injected into a Hewlett Packard 5890A gas chromatograph (100% methylsilicone column matrix) for analysis of the products.
For the methane sample, the reaction was quenched by addition of 0.1M acid to a pH of 2.9. The resulting aqueous phase was separated from the hydroxylase using a YM30 Centricon ultrafiltration unit. The filtrate was analyzed for methanol by gas chromatography.
Products resulting from the various substrates were identified by comparison with standard compounds.

[2] = target: T2, complete methane monooxygenase (Methylosinus trichosporium, UniProt P27353); test: Polarographic assay of methane monooxygenase activity with furan as substrate; type: biochemical, Methylosinus trichosporium OB3b
T2 construct: A soluble three-component methane monooxygenase from the Type II methanotroph Methylosinus trichosporium OB3b was purified to homogeneity; endogenous in cells; host or cells: Methylosinus trichosporium OB3b, grown on methane; components purified from cell-free extract
T2 sequence (P27353 1-526): T1 sequence (P27353 1-526)
T2 sequence (P27354 1-394 partner): T1 sequence (P27354 1-394 partner)
T2 sequence (P27355 1-169 partner): T1 sequence (P27355 1-169 partner)
Protocol: Enzyme Assays--Assays of bacterial cells were performed at 30° C. using cells harvested directly from the fermentor vessel. Methane oxidation was measured by gas chromatography by monitoring depletion of methane from the headspace of 30 ml reaction vials. Oxygen consumption was measured polarographically as described by Arciero et al. (J. Biol. Chem. 258, 14981-14991, 1983). The bacterial suspension was supplemented with 100 μM formaldehyde before gas chromatographic assays for conversion of propene to propene oxide in order to allow adequate regeneration of NADH by endogenous formaldehyde and formate dehydrogenases. Gas chromatographic and polarographic assays of the methane monooxygenase system were performed as described by Fox et al. (Biochem. Biophys. Res. Comm. 154, 165-170, 1988). Unless explicitly stated, the specific activity values reported for the enzyme components are those observed during the hydroxylation reaction in the presence of optimal concentrations of the other components of the methane monooxygenase. The optimal concentrations were determined by varying the concentration of one component relative to fixed concentrations of the other two components. In routine polarographic assays of methane monooxygenase activity, furan is an acceptable substrate with characteristics which facilitate the assay. […]

physchem = type: physicochemical; settings: water, 30° C.
[3] = 90 psi propane, up to two days, t-butyl peroxide; cited from earlier work
methane monooxygenase = target: T3, methane monooxygenase (Methylococcus capsulatus, UniProt P22869); settings: Table II, purified component from Methylococcus capsulatus (Bath); cited from earlier work
T3 construct: methane monooxygenases isolated from the Type I organism, Methylococcus capsulatus (Bath); host or cells: Methylococcus capsulatus (Bath)
T3 sequence (P22869 whole entry, looked up): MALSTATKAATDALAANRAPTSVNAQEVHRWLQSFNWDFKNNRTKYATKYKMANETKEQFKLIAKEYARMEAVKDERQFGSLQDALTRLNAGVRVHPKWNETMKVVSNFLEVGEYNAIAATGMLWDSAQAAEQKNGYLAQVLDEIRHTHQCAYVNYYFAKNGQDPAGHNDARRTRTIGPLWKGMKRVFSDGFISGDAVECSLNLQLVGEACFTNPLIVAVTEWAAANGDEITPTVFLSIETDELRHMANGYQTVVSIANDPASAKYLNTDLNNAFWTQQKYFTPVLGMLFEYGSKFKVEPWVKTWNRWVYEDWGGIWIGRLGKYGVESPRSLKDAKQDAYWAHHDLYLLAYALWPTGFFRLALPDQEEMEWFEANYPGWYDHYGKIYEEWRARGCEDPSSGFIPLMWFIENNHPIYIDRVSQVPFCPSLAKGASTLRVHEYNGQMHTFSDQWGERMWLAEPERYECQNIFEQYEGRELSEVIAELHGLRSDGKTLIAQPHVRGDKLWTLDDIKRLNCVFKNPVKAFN

Molecule: c1ccccc1 [Benzene]
Relative Distribution (Percent), product Phenol [1]: 100%

Molecule: CCCC [Butane]
Relative Distribution (Percent), product 1-butanol [1]: 64%
Relative Distribution (Percent), product 2-butanol [1]: 36%

Molecule: C [Methane]
Relative Distribution (Percent), product Methanol ([1]; about 100 mM H2O2, 2 minutes): 100%

Molecule: O=[N+]([O-])c1ccccc1 [Nitrobenzene]
Relative Distribution (Percent), product m-Nitrophenol [1]: 53%
Relative Distribution (Percent), product o-Nitrophenol [1]: 5%
Relative Distribution (Percent), product p-Nitrophenol [1]: 42%

Molecule: c1ccncc1 [Pyridine]
Relative Distribution (Percent), product Pyridine-N-oxide [1]: 100%

Molecule: c1ccoc1 [furan]
Km ([2]; read-out: KM(app)): 0.02 mM
turnover number ([2]; relative to the hydroxylase): 7.6 s⁻¹
solubility (physchem): 64 mM (≈ 4360 µg/mL)

Molecule: Fe2 O(OAc)2 Cl2 (bipy)2
yield of 2-propanol from propane [3]: 8.8%

Molecule: reductase from Methylococcus capsulatus (Bath): literature reductase, Colby et al. 1979
Specific activity (methane monooxygenase): 6000

The next lines start with the values.

Relative Distribution (Percent), product 1-methylcyclobutanol [1]: 14%
Relative Distribution (Percent), product 3-methyl-3-buten-1-01 [1]: none detected
Relative Distribution (Percent), product Methylcyclopropylmethanol [1]: 86%
Molecule: CC1(C)CC1 [1,1-dimethylcyclopropane]

Relative Distribution (Percent), product Ethanol [1]: 100%
Molecule: CC [Ethane]

Relative Distribution (Percent), product 2-methyl-1-propanol [1]: 61%
Relative Distribution (Percent), product 2-methyl-2-propanol [1]: 39%
Molecule: CC(C)C [Isobutane]

Relative Distribution (Percent), product 2-methyl-1-butanol [1]: 25%
Relative Distribution (Percent), product 2-methyl-2-butanol [1]: 41%
Relative Distribution (Percent), product 3-methyl-1-butanol [1]: 11%
Relative Distribution (Percent), product 3-methyl-2-butanol [1]: 24%
Molecule: CCC(C)C [Isopentane]

Relative Distribution (Percent), product 1-propanol [1]: 15%
Relative Distribution (Percent), product 2-propanol [1]: 85%
Molecule: CCC [Propane]

Relative Distribution (Percent), product Propylene Oxide [1]: 100%
Molecule: C=CC [Propene]
